According to patent publication US20090036512A1, “FUNGICIDAL ACTIVE COMPOUND COMBINATION” (priority 2005, published 2009):

System: Leptosphaeria nodorum
Test: Leptosphaeria nodorum test (wheat)/protective
Format: in vivo
Conditions: Parastagonospora nodorum, 240 h, protective, evaluation 10 days after inoculation
Description: Leptosphaeria nodorum test (wheat)/protective Solvent: 50 parts by weight of N,N-dimethylacetamide Emulsifier: 1 part by weight of alkylaryl polyglycol ether To prepare a suitable preparation of active compound, 1 part by weight of active compound or active compound combination is mixed with the stated amounts of solvents and emulsifier, and the concentrate is diluted with water to the desired concentration, or a commercial formulation of active compound or active compound combination with water is diluted with water to the desired concentration. To test for protective activity, young plants are sprayed with the active compound preparation at the stated application rate. After the spray coating has dried on, the plants are sprayed with a spore suspension of Leptosphaeria nodorum. The plants remain in an incubation cabin at 20° C. and 100% relative atmospheric humidity for 48 hours. The plants are placed in a greenhouse at a temperature of about 20° C. and a relative atmospheric humidity of 80%. Evaluation is carried out 10 days after inoculation. Here, 0% means an efficacy which corresponds to that of the control, whereas an efficacy of 100% means that no infection is observed.

Row | Structure (SMILES) | Emax at 82.5 ppm (application rate 82.5 ppm, read-out: % efficacy (converted)) [%] | Emax at 375 ppm (application rate 375 ppm, read-out: % efficacy) [%] | Emax at 500 ppm (application rate 500 ppm, read-out: % efficacy) [%] | Emax at 25 ppm (application rate 25 ppm, read-out: % efficacy) [%]
1 | O=C1C2CC=CCC2C(=O)N1SC(Cl)(Cl)Cl (stereo not shown) [Captan, 3a,4,7,7a-tetrahydro-2-[(trichloromethyl)thio]-1H-isoindole-1,3(2H)-dione] | 50 | 25 | 25 | 
2 | CON=C(C(=O)OC)c1ccccc1CO/N=C(\C)c1cccc(C(F)(F)F)c1 [Trifloxystrobin, 2-[α-{[(α-methyl-3-trifluoromethyl-benzyl)imino]-oxy}-o-tolyl]-glyoxylic acid methyl ester O-methyloxime] |  |  |  | 50
